Measurements published in patent US9938273B2 (Plexxikon Inc., priority 2015, dated 2018).

Each compound was assayed against T1, BA/F3-FLT3-ITD + D835Y cells (Homo sapiens, UniProt P36888, D835Y, cells depend on it, form not given) (assay: Cell proliferation assay (CellTiter-Glo), engineered BA/F3 cells). Details: BaF3 FLT3 ITD/D835Y cells, 3d-Growth; read-out: BaF3_FLT3 ITD/D835Y 3d-Growth: IC50.
T1 sequence (P36888 1-993 D835Y): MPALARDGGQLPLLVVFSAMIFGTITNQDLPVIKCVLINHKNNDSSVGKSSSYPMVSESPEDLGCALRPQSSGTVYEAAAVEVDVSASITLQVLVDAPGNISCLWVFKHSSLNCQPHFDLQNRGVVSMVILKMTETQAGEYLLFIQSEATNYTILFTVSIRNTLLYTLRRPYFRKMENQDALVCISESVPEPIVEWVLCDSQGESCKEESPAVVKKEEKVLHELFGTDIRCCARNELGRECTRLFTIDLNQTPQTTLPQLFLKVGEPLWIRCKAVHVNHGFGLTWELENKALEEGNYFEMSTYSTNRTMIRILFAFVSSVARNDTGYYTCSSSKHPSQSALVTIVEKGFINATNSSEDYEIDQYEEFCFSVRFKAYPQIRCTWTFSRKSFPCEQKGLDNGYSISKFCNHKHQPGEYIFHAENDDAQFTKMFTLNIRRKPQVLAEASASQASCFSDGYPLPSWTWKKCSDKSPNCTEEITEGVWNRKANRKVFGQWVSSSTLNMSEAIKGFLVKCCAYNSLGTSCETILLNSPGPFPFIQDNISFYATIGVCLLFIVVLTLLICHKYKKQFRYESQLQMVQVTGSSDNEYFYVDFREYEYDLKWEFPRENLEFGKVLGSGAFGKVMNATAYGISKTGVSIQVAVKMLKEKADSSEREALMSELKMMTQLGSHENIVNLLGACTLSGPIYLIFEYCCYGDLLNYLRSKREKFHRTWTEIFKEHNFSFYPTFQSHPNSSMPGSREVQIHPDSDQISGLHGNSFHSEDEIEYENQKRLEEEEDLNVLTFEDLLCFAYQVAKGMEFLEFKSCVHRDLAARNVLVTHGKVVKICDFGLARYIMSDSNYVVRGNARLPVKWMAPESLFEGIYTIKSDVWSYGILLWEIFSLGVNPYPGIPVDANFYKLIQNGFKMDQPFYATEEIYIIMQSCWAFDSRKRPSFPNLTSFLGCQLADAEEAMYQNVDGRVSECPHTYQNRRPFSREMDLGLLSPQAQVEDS
Type: cell-based, murine
Method in brief: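 Three-day growth at 37 °C, 5% CO2 under compound (1 μM top final, 1:3 dilutions, eight points, 0.2% DMSO), read as ATP luminescence by CellTiter-Glo for IC50. Cells: MOLM-14 with FLT3 ITD plus D835Y or F691L, and IL-3-deprived Ba/F3 transfected with FLT3 ITD/D835Y, 1×10^4 per well.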

Row | Compound | GI50 [µM]
1 | Cc1ccc(-c2cnc3[nH]c(-c4ccccc4)cc3c2)nc1C(=O)N1CCC(N)CC1 [Compound P-0033, (4-amino-1-piperidyl)-[3-methyl-6-(2-phenyl-1H-pyrrolo[2,3-b]pyridin-5-yl)-2-pyridyl]methanone] | 0.0001 to 10
2 | c1ccc(-c2cc3cc(-c4ccc5[nH]nc(NC6CCNC6)c5c4)cnc3[nH]2)cc1 (centres unmarked) [Compound P-0059, 5-(2-phenyl-1H-pyrrolo[2,3-b]pyridin-5-yl)-N-pyrrolidin-3-yl-1H-indazol-3-amine] | 0.0001 to 10
3 | CNC1CCN(C(=O)c2n[nH]c3ccc(-c4cnc5[nH]c(-c6ccccc6)cc5c4)cc23)CC1 [Compound P-0044, [4-(methylamino)-1-piperidyl]-[5-(2-phenyl-1H-pyrrolo[2,3-b]pyridin-5-yl)-1H-indazol-3-yl]methanone] | 0.0001 to 10
4 | N[C@H]1CCN(C(=O)c2cccc(-c3cnc4[nH]c(-c5ccccc5)cc4c3)c2)C1 [Compound P-0036, [(3S)-3-aminopyrrolidin-1-yl]-[3-(2-phenyl-1H-pyrrolo[2,3-b]pyridin-5-yl)phenyl]methanone] | 0.0001 to 10
5 | NC1CCN(c2cccc3ccc(-c4cnc5[nH]c(-c6ccccc6)cc5c4)nc23)CC1 [Compound P-0034, 1-[2-(2-phenyl-1H-pyrrolo[2,3-b]pyridin-5-yl)-8-quinolyl]piperidin-4-amine] | 0.0001 to 10
6 | NC1CCN(C(=O)c2n[nH]c3ccc(-c4cnc5[nH]c(C6=CCN(C(=O)C7CC7)C6)cc5c4)cc23)CC1 [Compound P-0074, (4-amino-1-piperidyl)-[5-[2-[1-(cyclopropanecarbonyl)-2,5-dihydropyrrol-3-yl]-1H-pyrrolo[2,3-b]pyridin-5-yl]-1H-indazol-3-yl]methanone] | 0.0001 to 10
7 | Cc1ccc(-c2cnc3[nH]c(-c4ccccc4)cc3c2)cc1C(=O)N1CCC(N)CC1 [Compound P-0035, (4-amino-1-piperidyl)-[2-methyl-5-(2-phenyl-1H-pyrrolo[2,3-b]pyridin-5-yl)phenyl]methanone] | 0.0001 to 10
8 | CNC(=O)C1CCN(C(=O)c2cccc(-c3cnc4[nH]c(-c5ccccc5)cc4c3)n2)CC1 [Compound P-0030, N-methyl-1-[6-(2-phenyl-1H-pyrrolo[2,3-b]pyridin-5-yl)pyridine-2-carbonyl]piperidine-4-carboxamide] | 0.0001 to 10
9 | N[C@@H]1CN(C(=O)c2cccc(-c3cnc4[nH]c(-c5ccccc5)cc4c3)n2)CC12CC2 [Compound P-0083, [(7S)-7-amino-5-azaspiro[2.4]heptan-5-yl]-[6-(2-phenyl-1H-pyrrolo[2,3-b]pyridin-5-yl)-2-pyridyl]methanone] | 0.0001 to 10
10 | CC(=O)NC1CCN(C(=O)c2cccc(-c3cnc4[nH]c(-c5ccc(F)cc5)cc4c3)c2)CC1 [Compound P-0001, N-[1-[3-[2-(4-fluorophenyl)-1H-pyrrolo[2,3-b]pyridin-5-yl]benzoyl]-4-piperidyl]acetamide] | 0.0001 to 10
11 | N[C@H]1CCN(C(=O)c2csc(-c3cnc4[nH]c(-c5ccccc5)cc4c3)n2)C1 [Compound P-0048, [(3S)-3-aminopyrrolidin-1-yl]-[2-(2-phenyl-1H-pyrrolo[2,3-b]pyridin-5-yl)thiazol-4-yl]methanone] | 50 to 100
12 | O=C(NC1CCNCC1)c1n[nH]c2ccc(-c3cnc4[nH]c(-c5ccccc5)cc4c3)cc12 [Compound P-0039, 5-(2-phenyl-1H-pyrrolo[2,3-b]pyridin-5-yl)-N-(4-piperidyl)-1H-indazole-3-carboxamide] | 0.0001 to 10
13 | NC1CCCN(C(=O)c2cccc(-c3cnc4[nH]c(-c5ccccc5)cc4c3)n2)C1 (centres unmarked) [Compound P-0067, (3-amino-1-piperidyl)-[6-(2-phenyl-1H-pyrrolo[2,3-b]pyridin-5-yl)-2-pyridyl]methanone] | 0.0001 to 10
14 | CC1(N)CCCN(C(=O)c2cccc(-c3cnc4[nH]c(-c5ccccc5)cc4c3)n2)C1 (centres unmarked) [Compound P-0082, (3-amino-3-methyl-1-piperidyl)-[6-(2-phenyl-1H-pyrrolo[2,3-b]pyridin-5-yl)-2-pyridyl]methanone] | 0.0001 to 10
